# According to patent EP3046573B1, “AMYLIN ANALOGUES” (Zealand Pharma A/S, priority 2013, dated 2015):
# Numbered stars: 1 amine (or outer) side, 2 acyl side, 3 side chain; on linkers, the order of the positions; unused ones are H or OH. Bridge positions count the residues as written; N and C are the ends. Square brackets hold non-standard residues; d marks the D form. Peptide text beside a SMILES is read from it. * marks the point of attachment. C20 diacid = O=C(O)CCCCCCCCCCCCCCCCCCC(=O)*; γGlu = O=C(O)[C@H](CCC(=O)[*:2])N[*:1]; NMeI = CC[C@H](C)[C@H](NC)C(=O)O; Aze = O=C(O)[C@@H]1CCN1; Sar = CNCC(=O)O
# Tests used:
# [1] = Assessment of physical stability: fibril formation detected with Thioflavin T (ThT), lag-time; assay type: physicochemical; details: 1 mg/ml peptide, 40 µM ThT, FND = Fibrillation not detected; for Fibrillation lag time (hours) pH 4.0 (Ac): 50 mM acetate buffer pH 4.0, 96 hours at 40°C; for Fibrillation lag time (hours) pH 7.0 (His): 50 mM histidine buffer pH 7.0, 96 hours at 40°C; for Fibrillation lag time (hours) pH 7.0 (Ph): 50 mM phosphate buffer pH 7.0, 96 hours at 40°C
# How it was run: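 Test peptide at 1 mg/ml with 40 µM ThT in 50 mM phosphate (pH 7.0), 50 mM histidine (pH 7.0) or 50 mM acetate (pH 4.0), in triplicate, 40° C. for 96 h. Fluorescence read every 10 min after 300 s agitation. Lag-time (h) taken as intersection of linear fits to initial stable and growth phases.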
# Sprague Dawley (SD) rats = assay: Acute food intake and body weight in normal Sprague Dawley rats; assay type: in vivo; details: vehicle-corrected, dose 30 nmol/kg sc, once; for Body weight loss (%) after 96 hours: mean ± SEM, n = 8
# Procedure: Sprague Dawley (SD) rats were obtained from Taconic A/S, Denmark. The animals arrived at least 7 days before the study start to allow acclimatization to experimental conditions. From arrival and throughout the study, the rats were housed in groups of 2 (n = 2) in a light-, temperature- and humidity-controlled room (reversed 12/12 h light/dark cycle: lights turned off during day-time and on during night-time; temperature 20-22°C; relative humidity 50-80%). Animals had access ad libitum to food (Altromin™ 1324, Brogaarden A/S, Gentofte, Denmark) and water (domestic quality tap water with citric acid added to pH ∼ 3.6) during the entire study. Stratification of rats was based on body weight (BW) on a cage-by-cage basis; mean BWs per cage were used as the basis for pairing four cages together in a group (n = 8 per group). A vehicle group and positive control group were included in each set of tests. Rats were dosed subcutaneously (sc) once in the morning immediately before turning off the lights, using a body weight-corrected dose of peptide (30 nmol/kg). Dosing volume was 5 ml/kg. Food intake was recorded manually at t = 0 (pre-dose) and at t = 4, 7, 10, 24, 48, 72 and 96 hours after dosing. Body weight was measured daily.
# Statistical analyses on body weight were performed using GraphPad™ Prism version 5. The measured parameters were compared using unpaired t tests. Differences were considered statistically significant at p < 0.05. Data are means ± SEM; n =8.
SMILES,Fibrillation lag time (hours) pH 4.0 (Ac) [1],Fibrillation lag time (hours) pH 7.0 (His) [1],Fibrillation lag time (hours) pH 7.0 (Ph) [1],Food intake inhibition (%) after 48 hours (Sprague Dawley (SD) rats),Body weight loss (%) after 96 hours (Sprague Dawley (SD) rats)
"CC[C@H](C)[C@@H](C(=O)N[C@@H](CC(C)C)C(=O)N[C@@H](CO)C(=O)N[C@@H](CO)C(=O)N[C@H](C(=O)N[C@@H](CC(N)=O)C(=O)N[C@H](C(=O)NCC(=O)N[C@@H](CO)C(=O)N[C@@H](CC(N)=O)C(=O)N[C@H](C(=O)N1CC[C@H]1C(N)=O)[C@@H](C)O)C(C)C)[C@@H](C)O)N(C)C(=O)[C@H](C)NC(=O)CN(C)C(=O)[C@H](Cc1ccccc1)NC(=O)[C@H](CC(N)=O)NC(=O)[C@H](CC(N)=O)NC(=O)[C@H](CO)NC(=O)[C@H](CO)NC(=O)[C@H](CCCNC(=N)N)NC(=O)[C@H](Cc1c[nH]cn1)NC(=O)[C@H](CC(C)C)NC(=O)[C@H](Cc1ccccc1)NC(=O)[C@H](CCC(=O)O)NC(=O)[C@H](C)NC(=O)[C@H](CC(C)C)NC(=O)[C@H](CCCNC(=N)N)NC(=O)[C@H](CCC(N)=O)NC(=O)[C@@H](NC(=O)[C@H](C)NC(=O)[C@@H]1CSSC[C@H](NC(=O)[C@H](CCCNC(=N)N)NC(=O)CC[C@H](NC(=O)CCCCCCCCCCCCCCCCCCC(=O)O)C(=O)O)C(=O)N[C@@H](CC(N)=O)C(=O)N[C@@H]([C@@H](C)O)C(=O)N[C@@H](C)C(=O)N[C@@H]([C@@H](C)O)C(=O)N1)[C@@H](C)O [Compound 107, [19CD]-isoGlu-RC()NTATC()ATQRLAEFLHRSSNNF-Gly(Me)-A-Ile(Me)-LSSTNVGSNT-Aze-NH2] ({C20 diacid-γGlu}-RCNTATCATQRLAEFLHRSSNNF[Sar]A[NMeI]LSSTNVGSNT[Aze]-NH2; disulfide 2-7)",FND,FND,16 hours,83%,6 ± 1.5%
"CC[C@H](C)[C@@H](C(=O)N[C@@H](CC(C)C)C(=O)N[C@@H](CO)C(=O)N[C@@H](CO)C(=O)N[C@H](C(=O)N[C@@H](CCC(=O)O)C(=O)N[C@H](C(=O)NCC(=O)N[C@@H](CO)C(=O)N[C@@H](CCC(=O)O)C(=O)N[C@H](C(=O)N1CCC[C@H]1C(N)=O)[C@@H](C)O)C(C)C)[C@@H](C)O)N(C)C(=O)[C@H](C)NC(=O)CN(C)C(=O)[C@H](Cc1ccccc1)NC(=O)[C@H](CO)NC(=O)[C@H](CO)NC(=O)[C@H](CO)NC(=O)[C@H](CO)NC(=O)[C@H](CCCNC(=N)N)NC(=O)[C@H](Cc1c[nH]cn1)NC(=O)[C@H](CC(C)C)NC(=O)[C@H](Cc1ccccc1)NC(=O)[C@H](CCC(=O)O)NC(=O)[C@H](C)NC(=O)[C@H](CC(C)C)NC(=O)[C@H](CCCNC(=N)N)NC(=O)[C@H](CC(=O)O)NC(=O)[C@@H](NC(=O)[C@H](C)NC(=O)[C@@H]1CSSC[C@H](NC(=O)[C@H](CCCNC(=N)N)NC(=O)CC[C@H](NC(=O)CCCCCCCCCCCCCCCCCCC(=O)O)C(=O)O)C(=O)N[C@@H](CC(N)=O)C(=O)N[C@@H]([C@@H](C)O)C(=O)N[C@@H](C)C(=O)N[C@@H]([C@@H](C)O)C(=O)N1)[C@@H](C)O [Compound 120, [19CD]-isoGlu-RC()NTATC()ATDRLAEFLHRSSSSF-Gly(Me)-A-Ile(Me)-LSSTEVGSETP-NH2] ({C20 diacid-γGlu}-RCNTATCATDRLAEFLHRSSSSF[Sar]A[NMeI]LSSTEVGSETP-NH2; disulfide 2-7)",FND,FND,FND,,12 ± 1.8%
"CC[C@H](C)[C@@H](C(=O)N[C@@H](CC(C)C)C(=O)N[C@@H](CO)C(=O)N[C@@H](CO)C(=O)N[C@H](C(=O)N[C@@H](CCC(=O)O)C(=O)N[C@H](C(=O)NCC(=O)N[C@@H](CO)C(=O)N[C@@H](CCC(=O)O)C(=O)N[C@H](C(=O)N1CCC[C@H]1C(N)=O)[C@@H](C)O)C(C)C)[C@@H](C)O)N(C)C(=O)[C@H](C)NC(=O)CN(C)C(=O)[C@H](Cc1ccccc1)NC(=O)[C@H](CO)NC(=O)[C@H](CO)NC(=O)[C@H](CO)NC(=O)[C@H](CO)NC(=O)[C@H](CCCNC(=N)N)NC(=O)[C@H](Cc1c[nH]cn1)NC(=O)[C@H](CC(C)C)NC(=O)[C@H](Cc1ccccc1)NC(=O)[C@H](CCC(=O)O)NC(=O)[C@H](C)NC(=O)[C@H](CC(C)C)NC(=O)[C@H](CCCNC(=N)N)NC(=O)[C@H](CCC(=O)O)NC(=O)[C@@H](NC(=O)[C@H](C)NC(=O)[C@@H]1CSSC[C@H](NC(=O)[C@H](CCCNC(=N)N)NC(=O)CC[C@H](NC(=O)CCCCCCCCCCCCCCCCCCC(=O)O)C(=O)O)C(=O)N[C@@H](CCC(=O)O)C(=O)N[C@@H]([C@@H](C)O)C(=O)N[C@@H](C)C(=O)N[C@@H]([C@@H](C)O)C(=O)N1)[C@@H](C)O [Compound 134, [19CD]-isoGlu-RC()ETATC()ATERLAEFLHRSSSSF-Gly(Me)-A-Ile(Me)-LSSTEVGSETP-NH2] ({C20 diacid-γGlu}-RCETATCATERLAEFLHRSSSSF[Sar]A[NMeI]LSSTEVGSETP-NH2; disulfide 2-7)",FND,FND,FND,27%,4 ± 3.1 %
"CC[C@H](C)[C@@H](C(=O)N[C@@H](CC(C)C)C(=O)N[C@@H](CO)C(=O)N[C@@H](CO)C(=O)N[C@H](C(=O)N[C@@H](CCC(=O)O)C(=O)N[C@H](C(=O)NCC(=O)N[C@@H](CO)C(=O)N[C@@H](CCC(=O)O)C(=O)N[C@H](C(=O)N1CCC[C@H]1C(N)=O)[C@@H](C)O)C(C)C)[C@@H](C)O)N(C)C(=O)[C@H](C)NC(=O)CN(C)C(=O)[C@H](Cc1ccccc1)NC(=O)[C@H](CO)NC(=O)[C@H](CO)NC(=O)[C@H](CCCNC(=N)N)NC(=O)[C@H](Cc1c[nH]cn1)NC(=O)[C@H](CC(C)C)NC(=O)[C@H](Cc1ccccc1)NC(=O)[C@H](CCC(=O)O)NC(=O)[C@H](C)NC(=O)[C@H](CC(C)C)NC(=O)[C@H](CCCNC(=N)N)NC(=O)[C@H](CCC(=O)O)NC(=O)[C@@H](NC(=O)[C@H](C)NC(=O)[C@@H]1CSSC[C@H](NC(=O)[C@H](Cc2c[nH]c3ccccc23)NC(=O)CC[C@H](NC(=O)CCCCCCCCCCCCCCCCCCC(=O)O)C(=O)O)C(=O)NCC(=O)N[C@@H]([C@@H](C)O)C(=O)N[C@@H](C)C(=O)N[C@@H]([C@@H](C)O)C(=O)N1)[C@@H](C)O [Compound 161, [19CD]-isoGlu-WC()GTATC()ATERLAEFLHRSSF-Gly(Me)-A-Ile(Me)-LSSTEVGSETP-NH2] ({C20 diacid-γGlu}-WCGTATCATERLAEFLHRSSF[Sar]A[NMeI]LSSTEVGSETP-NH2; disulfide 2-7)",FND,FND,FND,99%,10 ± 2.7%
